In patent US12606552B2, “Bifunctional compound, preparation method therefor, and use thereof” (SUZHOU KINTOR PHARMACEUTICALS, INC., priority 2020, dated 2026) one finds DC50 data, which are given here for 21 compounds.

The test deals with T1, AR (Homo sapiens, UniProt P10275, T878A).
T1 sequence (P10275 1-920 T878A): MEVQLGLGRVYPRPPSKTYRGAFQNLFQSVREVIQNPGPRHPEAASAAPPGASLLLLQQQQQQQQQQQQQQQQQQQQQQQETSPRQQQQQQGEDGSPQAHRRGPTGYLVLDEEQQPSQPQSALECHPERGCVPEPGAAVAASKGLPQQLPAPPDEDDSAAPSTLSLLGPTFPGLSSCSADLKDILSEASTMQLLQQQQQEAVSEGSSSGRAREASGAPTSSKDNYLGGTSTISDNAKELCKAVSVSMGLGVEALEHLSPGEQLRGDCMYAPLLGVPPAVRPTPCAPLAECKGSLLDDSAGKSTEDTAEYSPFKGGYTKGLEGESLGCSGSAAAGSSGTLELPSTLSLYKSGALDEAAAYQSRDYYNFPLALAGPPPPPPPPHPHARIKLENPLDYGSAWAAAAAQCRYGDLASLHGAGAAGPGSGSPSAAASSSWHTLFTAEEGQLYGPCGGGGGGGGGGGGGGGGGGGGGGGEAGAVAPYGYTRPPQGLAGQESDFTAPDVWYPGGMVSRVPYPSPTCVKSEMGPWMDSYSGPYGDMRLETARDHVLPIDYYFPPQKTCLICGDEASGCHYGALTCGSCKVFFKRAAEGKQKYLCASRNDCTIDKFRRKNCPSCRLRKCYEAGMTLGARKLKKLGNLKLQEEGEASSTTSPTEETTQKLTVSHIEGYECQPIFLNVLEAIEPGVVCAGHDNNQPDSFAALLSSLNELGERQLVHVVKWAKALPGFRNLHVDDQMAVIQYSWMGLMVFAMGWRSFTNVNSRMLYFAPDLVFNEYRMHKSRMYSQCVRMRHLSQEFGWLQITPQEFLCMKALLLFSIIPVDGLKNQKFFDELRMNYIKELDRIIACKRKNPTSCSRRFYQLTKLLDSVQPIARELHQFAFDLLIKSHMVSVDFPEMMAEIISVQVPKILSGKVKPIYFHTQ
Description: Effects of compounds on AR expression in LNCaP cells (ELISA, DC50). Set-up: Measurement of the Effects of Drugs on the Expression of AR in Cells by ELISA Method; endogenous in cells; host or cells: LNCaP. As to conditions: 24 hours of drug treatment, AR by ELISA. The class given is cell-based. On the procedure: Activity Assay Example 1: Effects of Compounds on AR Expression in LNCaP Cells
1. Cell Line and Cell Culture
Human prostate cancer cells LNCaP (Shanghai Chinese Academy of Sciences Cell Bank). LNCaP was cultured in 1640 medium containing 10% fetal bovine serum. The cells grow in clusters, with weak adhesion to the bottom of the culture flask, slow proliferation, with a multiplication time of 72 h. The cells are closely adhered to each other and need to be digested with 0.05% trypsin containing 0.025% EDTA. The cells were passaged every 3 days. The cells were cultured at 37° C. and 5% CO2 in a humidified incubator
2. Cell plating: The supernatant was discarded, and the Lncap cells in the logarithmic growth phase were taken, washed with PBS once, and added with appropriate 0.05% trypsin digestion solution to be fully digested into single cell suspension, and centrifuged, resuspended and counted to make the number of cells about 15,000 per well, then inoculated in a 96-well plate, placed at 37° C., 5% CO2 and cultured overnight for 24 h.
3. Preparation and Addition of Compound Solutions
About 2 mg of each compound was weighed and dissolved in DMSO to make the stock solution with a concentration of 10 mmol/L. Dilution process (final concentration dilution: 2, 0.667, 0.222, 0.074, 0.0245, 0.008, 0.003, 0.001, 0.0003, 0.0001 μmol/L): 10 centrifuge tubes with a volume of 1.5 mL were taken and numbered 1, 2, 3, 4, 5, 6, 7, 8, 9, and 10, 80 μL DMSO was added to tube No. 1, and 60 μL DMSO was added to tubes No. 2 to No. 10, 20 μL of the stock solution was pipetted to tube No. 1 and mixed well; 30 μL was pipetted from tube No. 1 into tube No. 2 and mixed well. 30 μL was pipetted from tube No. 2 into tube No. 3 and mixed well, and so forth, to obtain samples No. 4-10, and to obtain working solutions of compounds of different concentrations respectively. 2 μL was pipetted from the above-mentioned tubes No. 1-10 into each corresponding sterile deep-well plates, added with 198 μL of culture medium, and mixed well. 11 ul was added to each well of the 96-well cell plate cultured overnight to obtain the corresponding desired concentrations (2, 0.667, 0.222, 0.074, 0.0245, 0.008, 0.003, 0.001, 0.0003, 0.0001 μmol/L).
4. Measurement of the Effects of Drugs on the Expression of AR in Cells by ELISA Method
After 24 hours of drug treatment, the supernatant was removed, and 200 μL of PBS was added to wash cells, and then the supernatant was removed, and 100 μL of cell lysate was added to lyse cells on ice for 20 min, then the cell lysate was centrifuged at 4000 rpm for 20 min at 4° C. and the supernatant was taken for later use. The measurement steps of the supernatant were according to the ELISA kit instructions:
4.1 The slats required for the test were taken out from the sealed bag that has been equilibrated to room temperature. Please put the unused slats and desiccant back into the aluminum foil bag and compress the self-sealing strip, seal the bag, and store at 4° C.
4.2 Standards and sample diluents were added to blank wells, and different concentrations of standards (10 ul/well) and sample diluents (90 ul/well) were added to the remaining corresponding wells, and the reaction wells were sealed with sealing tape, and refrigerated at 4° C. overnight.
4.3 Primary antibody was diluted with dilution buffer to the corresponding concentration and added to each well in 100 ul/well. The reaction wells were sealed with sealing tape and incubated at 37° C. for 60 min.
4.4 Secondary antibody was diluted with dilution buffer to the corresponding concentration and added to each well in 100 ul/well. The reaction wells were sealed with sealing tape and incubated at 37° C. for 30 min.
4.5 The reaction wells were added with 100 ul/well of substrate (TMB) and incubated at room temperature for 30 min.
4.6 The reaction wells were added with 100 ul/well of stop solution, mixed well and then the OD450 value was measured with a microplate reader. […]
On the technique in general: An ELISA detects its analyte on a solid surface through an enzyme-linked reagent.
For `Cc1ncsc1-c1ccc([C@H](C)NC(=O)[C@@H]2C[C@@H](O)CN2C(=O)[C@@H](NC(=O)COCCC(F)COc2c(F)cc(-c3ncc(N4C(=S)N(c5ccc(C#N)c(C(F)(F)F)c5F)C(=O)C4(C)C)cc3F)cc2F)C(C)(C)C)cc1` (stereo partly drawn) [Compound A149], the DC50 is 111 nM.
Next, `CC(C)(C)[C@H](NC(=O)COCCCCOc1ccc(-c2ccc(N3C(=S)N(c4ccc(C#N)c(C(F)(F)F)c4F)C(=O)C3(C)C)cn2)cc1C(F)(F)F)C(=O)N1C[C@H](O)C[C@H]1C(=O)NCc1ccccc1` [Compound A122]: 155 nM.
`Cc1ncoc1-c1c[nH]c([C@@H]2C[C@@H](O)CN2C(=O)[C@@H](NC(=O)COCCCCOc2ccc(-c3ncc(N4C(=S)N(c5ccc(C#N)c(C(F)(F)F)c5F)C(=O)C4(C)C)cc3F)c(C(F)(F)F)c2)C(C)(C)C)n1` [Compound A224]: the DC50 amounted to 75.7 nM.
With `Cc1ncsc1-c1ccc(CNC(=O)[C@@H]2C[C@@H](O)CN2C(=O)[C@@H](NC(=O)COc2ccc(-c3ccc(N4C(=S)N(c5ccc(C#N)c(C(F)(F)F)c5F)C(=O)C4(C)C)cn3)cc2)C(C)(C)C)cc1` [Compound A48], the DC50 is more than 2000 nM.
For `Cc1ncsc1-c1ccc(CNC(=O)[C@@H]2C[C@@H](O)CN2C(=O)[C@@H](NC(=O)COCCCOCCCCCOc2ccc(N3C(=S)N(c4ccc(C#N)c(C(F)(F)F)c4F)C(=O)C3(C)C)cn2)C(C)(C)C)cc1` [Compound A247], the DC50 is 75.5 nM.
Under `Cc1ncsc1-c1ccc(CNC(=O)[C@@H]2C[C@@H](O)CN2C(=O)[C@@H](NC(=O)CCN2CCC(Oc3ccc(-c4ccc(N5C(=S)N(c6ccc(C#N)c(C(F)(F)F)c6F)C(=O)C5(C)C)cn4)cc3)CC2)C(C)(C)C)cc1` [Compound A65] stands 32.4 nM; under `Cc1ncsc1-c1ccc(CNC(=O)[C@@H]2C[C@@H](O)CN2C(=O)[C@@H](NC(=O)COCCOCCOc2ncc(N3C(=S)N(c4ccc(C#N)c(C(F)(F)F)c4F)C(=O)C3(C)C)cc2F)C(C)(C)C)cc1` [Compound A265], 381 nM.
Take `Cc1ncsc1-c1ccc(CNC(=O)[C@@H]2C[C@@H](O)CN2C(=O)[C@@H](NC(=O)COCCCCNC(=O)/C=C/c2ccc(N3C(=S)N(c4ccc(C#N)c(C(F)(F)F)c4F)C(=O)C3(C)C)cn2)C(C)(C)C)cc1` [Compound A170]: the DC50 amounted to 946 nM.
In the case of `Cc1ncsc1-c1ccc(CNC(=O)[C@@H]2C[C@@H](O)CN2C(=O)[C@@H](NC(=O)CCCn2cc(COc3ccc(-c4ccc(N5C(=S)N(c6ccc(C#N)c(C(F)(F)F)c6F)C(=O)C5(C)C)cn4)cc3)nn2)C(C)(C)C)cc1` [Compound A81], the DC50 is 63.3 nM.
Next, `Cc1ncsc1-c1ccc(CNC(=O)[C@@H]2C[C@@H](O)CN2C(=O)[C@@H](NC(=O)COCC(F)C(F)COc2ccc(-c3ccc(N4C(=S)N(c5ccc(C#N)c(C(F)(F)F)c5F)C(=O)C4(C)C)cn3)cc2)C(C)(C)C)cc1` (stereo partly drawn) [Compound A169]: 92.6 nM; `CC(=O)O[C@@H]1C[C@@H](C(=O)NCc2ccc(-c3scnc3C)cc2)N(C(=O)[C@@H](NC(=O)COCCCCOc2c(F)cc(-c3ncc(N4C(=S)N(c5ccc(C#N)c(C(F)(F)F)c5F)C(=O)C4(C)C)cc3F)cc2F)C(C)(C)C)C1` [Compound A152]: 167 nM; `Cc1ncsc1-c1ccc(CNC(=O)[C@@H]2C[C@@H](O)CN2C(=O)[C@@H](NC(=O)CCN2CCC(NC(=O)c3ccc(-c4ccc(N5C(=S)N(c6ccc(C#N)c(C(F)(F)F)c6F)C(=O)C5(C)C)cn4)cc3)C2)C(C)(C)C)cc1` (stereo partly drawn) [Compound A56]: 704 nM.
Under `CC(C)(C)[C@H](NC(=O)COCCCCOc1ccc(-c2ccc(N3C(=S)N(c4ccc(C#N)c(C(F)(F)F)c4F)C(=O)C3(C)C)cn2)cc1)C(=O)N1C[C@H](O)C[C@H]1c1nc(-c2cccs2)c[nH]1` [Compound A209] stands 856 nM; under `Cc1ncsc1-c1ccc(CNC(=O)[C@@H]2C[C@@H](O)CN2C(=O)[C@@H](NC(=O)COCCC(F)(F)COc2ccc(-c3ncc(N4C(=S)N(c5ccc(C#N)c(C(F)(F)F)c5F)C(=O)C4(C)C)cc3F)cc2F)C(C)(C)C)cc1` [Compound A163], 171 nM.
Next, `Cc1ncsc1-c1ccc(CNC(=O)[C@@H]2C[C@@H](O)CN2C(=O)[C@@H](NC(=O)CCCCCC#Cc2ncc(N3C(=S)N(c4ccc(C#N)c(C(F)(F)F)c4F)C(=O)C3(C)C)cc2F)C(C)(C)C)cc1` [Compound A125]: more than 2000 nM; `Cc1ncsc1-c1ccc(CNC(=O)[C@@H]2C[C@@H](O)CN2C(=O)[C@@H](NC(=O)COCC(F)(F)CCOc2ccc(-c3ncc(N4C(=S)N(c5ccc(C#N)c(C(F)(F)F)c5F)C(=O)C4(C)C)cc3F)c(C(F)(F)F)c2)C(C)(C)C)cc1` [Compound A168]: 159 nM; `Cc1ncsc1-c1ccc(CNC(=O)[C@@H]2C[C@@H](O)CN2C(=O)[C@@H](NC(=O)COCCOCCOc2ccc(-c3ccc(N4C(=S)N(c5ccc(C#N)c(C(F)(F)F)c5F)C(=O)C4(C)C)cn3)cc2)C(C)(C)C)cc1` [Compound A76]: 40 nM.
For the compound `CC1(C)C(=O)N(c2ccc(C#N)c(C(F)(F)F)c2F)C(=S)N1c1ccc([C@@H]2C[C@H]2C(=O)NCCCCNC(=O)COc2cccc3c2C(=O)N(C2CCC(=O)NC2=O)C3=O)nc1` (stereo partly drawn) [Compound A28], the DC50 was more than 2000 nM.
Next, `CC1(C)C(=O)N(c2ccc(C#N)c(C(F)(F)F)c2F)C(=S)N1c1ccc(C2CC2C(=O)NCCNC(=O)COc2cccc3c2C(=O)N(C2CCC(=O)NC2=O)C3=O)nc1` (stereo not drawn) [Compound A24]: more than 2000 nM.
Under `CC(C)(C)[C@H](NC(=O)COCCCCOc1ccc(-c2ccc(N3C(=S)N(c4ccc(C#N)c(C(F)(F)F)c4F)C(=O)C3(C)C)cn2)cn1)C(=O)N1C[C@H](O)C[C@H]1C(=O)NCc1ccc(C(N)=O)cc1` [Compound A127] stands 89.3 nM; under `Cc1ncsc1-c1ccc(CNC(=O)[C@@H]2C[C@@H](O)CN2C(=O)[C@@H](NC(=O)CN2CCN(Cc3ccc(-c4ccc(N5C(=S)N(c6ccc(C#N)c(C(F)(F)F)c6F)C(=O)C5(C)C)cn4)cc3)CC2)C(C)(C)C)cc1` [Compound A86], 69.3 nM.
